Patent publication US11053204B2, “Pyrimidinyloxy benzene derivatives as herbicides” (FMC Corporation, priority 2015, dated 2021)

Legend:
Assay type in all cases: in vivo
[1] = system: pigweed (Amaranthus retroflexus); assay: Test C postemergence, plant response rating
Summary of the method: (§1)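 After sowing in loam–sand blend or silt loam, pots were sprayed preemergence; separately grown 1- to 4-leaf plants were sprayed postemergence. Following 13 to 15 d under greenhouse conditions, injury was rated visually on a 0 to 100 scale.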

[2] = system: johnsongrass (Sorghum halepense); assay: Test C postemergence, plant response rating; conditions: for Plant response rating, Johnsongrass: scale 0 to 100; for Johnsongrass plant response rating: scale 0 to 100 (0 no effect, 100 complete control)
Summary of the method: as §1

[3] = system: johnsongrass (Sorghum halepense); assay: Test C preemergence, plant response rating
[4] = system: barnyardgrass (Echinochloa crus-galli); assay: Test C preemergence, plant response rating; conditions: Preemergence

| Structure (SMILES) | Plant response rating, Johnsongrass ([2]; 16 g ai/ha) | Plant response rating, Johnsongrass ([2]; 31 g ai/ha) | Johnsongrass plant response rating ([2]; 62 g ai/ha) | Johnsongrass plant response rating ([2]; 125 g ai/ha) | Plant response rating, Johnsongrass ([3]; 16 g ai/ha, scale 0 to 100) | Plant response rating, Johnsongrass ([3]; 31 g ai/ha, scale 0 to 100) | Plant response rating, Johnsongrass ([3]; 62 g ai/ha, scale 0 to 100) | Plant response rating, Johnsongrass ([3]; 125 g ai/ha, scale of 0 to 100) | also measured |
| --- | --- | --- | --- | --- | --- | --- | --- | --- | --- |
| N#Cc1cccc(Oc2ncc(Cl)cn2)c1CCCC(F)(F)F [Compound 72] | 5 | 10 | 10 | 10 | 5 | 65 | 70 | 100 | Plant response rating, Pigweed ([1]; 16 g ai/ha, scale 0 to 100): 80; Plant response rating, Pigweed ([1]; 31 g ai/ha, scale 0 to 100): 85; Pigweed plant response rating ([1]; 62 g ai/ha, scale 0 to 100 (0 no effect, 100 complete control)): 85; Pigweed plant response rating ([1]; 125 g ai/ha, scale 0 to 100 (0 no effect, 100 complete control)): 100; Plant response rating, Barnyardgrass ([4]; 62 g ai/ha, scale of 0 to 100): 80; Plant response rating, Barnyardgrass ([4]; 125 g ai/ha, scale of 0 to 100): 100; Plant response rating, Barnyardgrass ([4]; 16 g ai/ha, scale 0 to 100): 25; Plant response rating, Barnyardgrass ([4]; 31 g ai/ha, scale 0 to 100): 90 |
| N#Cc1cccc(Oc2ncc(Cl)cn2)c1CCCCC(F)(F)F [Compound 73, 3-[(5-chloro-2-pyrimidinyl)oxy]-2-(5,5,5-trifluoropentyl)benzonitrile] | 5 | 10 | 20 | 20 | 0 | 40 | 80 | 95 | pest or weed control at 16 g/ha ([1]; Amaranthus retroflexus, post-emergence, 16 g ai/ha, scale 0 to 100): 90%; pest or weed control at 31 g/ha ([1]; Amaranthus retroflexus, post-emergence, 31 g ai/ha, scale 0 to 100): 85%; pest or weed control at 62 g/ha ([1]; Amaranthus retroflexus, post-emergence, 62 g ai/ha, scale 0 to 100 (0 no effect, 100 complete control)): 100%; pest or weed control at 125 g/ha ([1]; Amaranthus retroflexus, post-emergence, 125 g ai/ha, scale 0 to 100 (0 no effect, 100 complete control)): 100%; pest or weed control at 62 g/ha ([4]; Echinochloa crus-galli, pre-emergence, 62 g ai/ha, scale of 0 to 100): 100%; pest or weed control at 125 g/ha ([4]; Echinochloa crus-galli, pre-emergence, 125 g ai/ha, scale of 0 to 100): 100%; pest or weed control at 16 g/ha ([4]; Echinochloa crus-galli, pre-emergence, 16 g ai/ha, scale 0 to 100): 15%; pest or weed control at 31 g/ha ([4]; Echinochloa crus-galli, pre-emergence, 31 g ai/ha, scale 0 to 100): 80% |
